Holding throughout (assay type): biochemical
The target in series [1] is T1, Taq Δ271 F667Y (polymerase A) (Thermus aquaticus, UniProt P19821, F272M/F667Y).
T1 construct: made in house; host or cells: E. coli
The experiment in a line: DNA polymerase activity assay with detergent or additive, Taq Δ271 F667Y purified without detergent. As to the method:
(§1) DNA polymerase activity was measured by running reactions of 50 μL containing 25 mM TAPS (tris-hydroxymethyl-methylaminopropane sulfonic acid) buffer, pH 9.3 (measured at 25° C.), 50 mM KCl, 2 mM MgCl2, 1 mM 2-mercaptoethanol, 0.2 mM each of dGTP, dCTP, dTTP, 0.2 mM [α-^33P]-dATP (0.05-0.1 Ci/mmol) and 0.4 mg/mL activated salmon sperm DNA. The reaction mixture (45 μL) was pre-heated to 74° C. and diluted polymerase (5 μL) added with thorough mixing. After 10 minutes of further incubation at 74° C., the reaction was stopped by the addition of 10 μL of 60 mM EDTA and the entire mixture placed at 0° C. Acid-precipitable radioactivity was determined on an aliquot ([…]) by diluting with 1 ml of 2 mM EDTA containing 0.05 mg/ml salmon sperm DNA and adding 1 mL of 20% (w/v) trichloroacetic acid, 2% (w/v) sodium pyrophosphate (Na4P2O7 10H2O) and incubating on ice for at least 15 minutes. Precipitated DNA was collected by filtering through 2.4 cm GFC filter disks (Schleichter and Schuell) and washed 7 times with 5ml of with 1 N HCl, 0.1 M sodium pyrophosphate. The filter was placed in 3 ml of aqueous scintillation counting fluid and ^33P-specific radioactivity determined by scintillation counting.
(§2) For the assays presented in Tables 5 and 6, the polymerase was diluted 10-5000 fold in a buffer containing 25 mM Tris-HCl pH 8.0, 50 mM KCl, 1 mM 2-mercaptoethanol, and the indicated concentration of detergent or other additive. Where possible, only reactions which incorporated 20- 100 pmol of dAMP in 10 minutes were used for calculation of activity.

The target of series [2] is T2, Tth Δ273 F668Y (polymerase C) (Thermus thermophilus, UniProt P52028, F274M/F669Y).
T2 construct: made in house; host or cells: E. coli
T2 sequence (P52028 274-834 F274M/F669Y): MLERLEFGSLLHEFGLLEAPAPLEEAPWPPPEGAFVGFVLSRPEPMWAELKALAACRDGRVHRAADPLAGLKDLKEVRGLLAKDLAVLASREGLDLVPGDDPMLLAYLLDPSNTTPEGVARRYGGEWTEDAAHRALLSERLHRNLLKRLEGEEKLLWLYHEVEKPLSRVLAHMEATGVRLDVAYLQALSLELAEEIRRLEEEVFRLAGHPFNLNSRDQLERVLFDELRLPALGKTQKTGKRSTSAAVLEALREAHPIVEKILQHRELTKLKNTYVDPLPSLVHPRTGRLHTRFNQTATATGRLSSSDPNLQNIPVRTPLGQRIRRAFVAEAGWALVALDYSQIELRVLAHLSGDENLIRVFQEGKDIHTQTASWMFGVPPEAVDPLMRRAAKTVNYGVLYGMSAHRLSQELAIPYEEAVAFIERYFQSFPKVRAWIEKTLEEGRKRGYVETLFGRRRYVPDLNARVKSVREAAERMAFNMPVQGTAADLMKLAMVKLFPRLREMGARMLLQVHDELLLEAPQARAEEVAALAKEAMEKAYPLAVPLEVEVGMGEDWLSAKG
The experiment in a line: DNA polymerase activity assay with detergent or additive, Tth Δ273 F668Y purified without detergent. The procedure:
as §1, §2

Series [3] has as its target T3, Taq Δ271 F667Y E681W (polymerase B) (Thermus aquaticus, UniProt P19821, E681W/F272M/F667Y).
T3 construct: made in house; host or cells: E. coli
The experiment in a line: DNA polymerase activity assay with detergent or additive, Taq Δ271 F667Y E681W purified without detergent. The procedure: as §1, §2

Series [4] concerns activated salmon sperm DNA. The experiment in a line: Specific DNA polymerase activity of enzymes purified and assayed with or without Tween 20 and NP-40. The procedure:
In one embodiment of the present invention, Taq Δ271 F667Y, and Taq Δ271 F667Y E681W were purified with or without detergents NP-40 & Tween-20. The butyl Sepharose chromatography elution profile for polymerase extracted without detergents was essentially identical to the profile for polymerase extracted with Tween 20 and NP-40.
as §1

Where [5] appears, read: additive final concentration 0.1% (w/v).
Setting [6] is: additive final concentration 0.85% (w/v).
The mark [7] stands for this setting: additive final concentration 0.5% (w/v).
[8] abbreviates: additive final concentration 0.01% (w/v).
The mark [9] stands for this setting: additive final concentration 0.05% (w/v).
Where [10] appears, read: detergent in purification: 0.1% Tween 20, 0.1% NP-40, detergent in assay: 0.1% Tween 20, 0.1% NP-40 (reference, 100%).
Where [11] appears, read: detergent in purification: 0.1% Tween 20, 0.1% NP-40, detergent in assay: None.
[12] abbreviates: detergent in purification: None, detergent in assay: 0.1% Tween 20, 0.1% NP-40.
Where [13] appears, read: detergent in purification: None, detergent in assay: None, 100% = polymerase purified and assayed using Tween 20 and NP-40.

T3 sequence (P19821 272-832 F272M/F667Y/E681W): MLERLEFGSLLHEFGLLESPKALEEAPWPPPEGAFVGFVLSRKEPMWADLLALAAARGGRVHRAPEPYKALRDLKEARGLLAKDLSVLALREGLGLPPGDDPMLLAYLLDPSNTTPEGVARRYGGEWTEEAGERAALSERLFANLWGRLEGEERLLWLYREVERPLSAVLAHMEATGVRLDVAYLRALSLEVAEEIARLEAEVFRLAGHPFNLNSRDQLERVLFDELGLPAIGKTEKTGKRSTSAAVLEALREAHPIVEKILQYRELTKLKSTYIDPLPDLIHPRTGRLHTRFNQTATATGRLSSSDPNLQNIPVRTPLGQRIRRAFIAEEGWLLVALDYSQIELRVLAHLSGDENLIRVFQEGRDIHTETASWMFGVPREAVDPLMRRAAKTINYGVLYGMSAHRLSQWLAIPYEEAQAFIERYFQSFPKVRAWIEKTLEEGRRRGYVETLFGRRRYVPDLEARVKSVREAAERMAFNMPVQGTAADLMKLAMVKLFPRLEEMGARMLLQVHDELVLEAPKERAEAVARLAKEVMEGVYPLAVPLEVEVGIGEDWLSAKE

For the molecule `CCCCCCCC(=O)N(C)C[C@H](O)[C@@H](O)[C@H](O)[C@H](O)CO` [Mega-8, Ocatanoyl-N-mehtylglucamide], the “Taq Δ271 F667Y activity relative to 0.5% each NP-40 and Tween 20” value is “+ + (Activity 70-80%)” in series [1] (setting [5]) and “+ (Activity 60-70%)” in series [1] (setting [6]). Further, in series [1] (detergent 0.5% (w/v)), the “Polymerase A Activity (%)” value worked out at 76.6%. The “Tth Δ273 F668Y activity relative to 0.5% each NP-40 and Tween 20” value was “+ + (Activity 70-80%)” in series [2] (setting [5]), “+ (Activity 60-70%)” in series [2] (setting [7]) and “+ (Activity 60-70%)” in series [2] (setting [6]). Also, the “Polymerase C Activity (%)” value in series [2] (detergent 0.5% (w/v)) is given as 84.5%. Further, the “Taq Δ271 F667Y E681W activity relative to 0.5% each NP-40 and Tween 20” value in series [3] (additive final concentration 0.001% (w/v) in assay reaction mixture) was “− − − (Activity < 20%)”; in series [3] (setting [8]), “− − − (Activity < 20%)”; in series [3] (setting [5]) it was “− (Activity 50-60%)”; in series [3] (setting [7]) it was “+ + + (Activity > 80% (relative to activity using 0.5% each NP-40 and Tween 20))”; in series [3] (setting [6]), “− − (Activity 20-50%)”. Further, the “Polymerase B Activity (%)” value in series [3] (detergent 0.5% (w/v)) came to 71%.
In the case of `C[C@H](CCC(=O)NCCC[N+](C)(C)CC(O)CS(=O)(=O)[O-])[C@H]1CC[C@H]2[C@@H]3[C@H](O)C[C@@H]4C[C@H](O)CC[C@]4(C)[C@H]3C[C@H](O)[C@]12C` (stereo partly drawn) [CHAPSO, 3-[(3-Cholamidopropyl)dimethylammonio]-2-hydroxy-1-propanesulfonate], the “Taq Δ271 F667Y activity relative to 0.5% each NP-40 and Tween 20” value is reported as “− − − (Activity < 20%)” in series [1] (setting [8]), “− − (Activity 20-50%)” in series [1] (setting [9]) and “+ (Activity 60-70%)” in series [1] (setting [5]). In addition, the “Tth Δ273 F668Y activity relative to 0.5% each NP-40 and Tween 20” value in series [2] (setting [8]) is reported as “− (Activity 50-60%)”; in series [2] (setting [9]), “− − (Activity 20-50%)”; in series [2] (setting [5]), “− − (Activity 20-50%)”. In addition, the “Taq Δ271 F667Y E681W activity relative to 0.5% each NP-40 and Tween 20” value was “− − − (Activity < 20%)” in series [3] (setting [8]), “− − (Activity 20-50%)” in series [3] (setting [9]) and “− − (Activity 20-50%)” in series [3] (setting [5]).
For Sodium Deoxycholate, the “Taq Δ271 F667Y activity relative to 0.5% each NP-40 and Tween 20” value in series [1] (setting [8]), in series [1] (setting [9]) and in series [1] (setting [5]) was “− − − (Activity < 20%)” each time. Also, the “Tth Δ273 F668Y activity relative to 0.5% each NP-40 and Tween 20” value in series [2] (setting [8]), in series [2] (setting [9]) and in series [2] (setting [5]) was “− − − (Activity < 20%)” in each case. Further, the “Taq Δ271 F667Y E681W activity relative to 0.5% each NP-40 and Tween 20” value in series [3] (setting [8]), in series [3] (setting [9]) and in series [3] (setting [5]) was “− − − (Activity < 20%)” each time.

B1: Taq Δ271, F667Y, E681W: Taq Δ271 F667Y E681W DNA Polymerase, SEQ ID NO: 12, recombinant thermostable DNA polymerase (protein, listed as Thermus aquaticus)
chain: MLERLEFGSLLHEFGLLESPKALEEAPWPPPEGAFVGFVLSRKEPMWADLLALAAARGGRVHRAPEPYKALRDLKEARGLLAKDLSVLALREGLGLPPGDDPMLLAYLLDPSNTTPEGVARRYGGEWTEEAGERAALSERLFANLWGRLEGEERLLWLYREVERPLSAVLAHMEATGVRLDVAYLRALSLEVAEEIARLEAEVFRLAGHPFNLNSRDQLERVLFDELGLPAIGKTEKTGKRSTSAAVLEALREAHPIVEKILQYRELTKLKSTYIDPLPDLIHPRTGRLHTRFNQTATATGRLSSSDPNLQNIPVRTPLGQRIRRAFIAEEGWLLVALDYSQIELRVLAHLSGDENLIRVFQEGRDIHTETASWMFGVPREAVDPLMRRAAKTINYGVLYGMSAHRLSQWLAIPYEEAQAFIERYFQSFPKVRAWIEKTLEEGRRRGYVETLFGRRRYVPDLEARVKSVREAAERMAFNMPVQGTAADLMKLAMVKLFPRLEEMGARML
Regarding B1, the “Assay (%*) specific activity” value in series [4] (setting [10]) is 100%; in series [4] (setting [11]) it was 2%; in series [4] (setting [12]), 157%; in series [4] (setting [13]) it was 6%.

B2: Taq Δ271, F667Y: Taq Δ271 F667Y DNA Polymerase (Thermo Sequenase), SEQ ID NO: 10, recombinant thermostable DNA polymerase (protein, listed as Thermus aquaticus)
chain: MLERLEFGSLLHEFGLLESPKALEEAPWPPPEGAFVGFVLSRKEPMWADLLALAAARGGRVHRAPEPYKALRDLKEARGLLAKDLSVLALREGLGLPPGDDPMLLAYLLDPSNTTPEGVARRYGGEWTEEAGERAALSERLFANLWGRLEGEERLLWLYREVERPLSAVLAHMEATGVRLDVAYLRALSLEVAEEIARLEAEVFRLAGHPFNLNSRDQLERVLFDELGLPAIGKTEKTGKRSTSAAVLEALREAHPIVEKILQYRELTKLKSTYIDPLPDLIHPRTGRLHTRFNQTATATGRLSSSDPNLQNIPVRTPLGQRIRRAFIAEEGWLLVALDYSQIELRVLAHLSGDENLIRVFQEGRDIHTETASWMFGVPREAVDPLMRRAAKTINYGVLYGMSAHRLSQELAIPYEEAQAFIERYFQSFPKVRAWIEKTLEEGRRRGYVETLFGRRRYVPDLEARVKSVREAAERMAFNMPVQGTAADLMKLAMVKLFPRLEEMGARMLLQVHDELVLEAPKERAEAVARLAKEVMEGVYPLAVPLEVEVGIGEDWLSAKE
Regarding B2, the “Assay (%*) specific activity” value in series [4] (setting [10]) worked out at 100%; in series [4] (setting [11]), 3%; in series [4] (setting [12]), 102%; in series [4] (setting [13]) it was 5%.

(Values after patent publication US20030134292A1, “Thermostable DNA polymerases and methods of making same” (priority 2001, published 2003).)
